Assay results as given in patent US9714249B2 (Novartis AG, priority 2013, dated 2017).

Key:
THP-1 cells = experiment: Cell growth inhibition assay (CellTiter-Glo), THP-1; assay type: cell-based, human; conditions: THP-1, 4 days; for GI50: Homo sapiens, 96 h, half-maximal growth inhibition; for THP-1 TGI: total growth inhibition
Method: (§1) The human leukemia cell lines MV-4-11, THP-1 and K-562 were employed to characterize the effect of BET inhibitors on cellular proliferation and viability. Cells were obtained from the American Type Culture Collection (ATCC) and cultured at 37° C. in a humidified 5% CO2 incubator in the following media: MV-4-11: DMEM high glucose (Animed #1-26F01-I), 10% FCS (Animed #2-01F26-I), 4 mM L-Glutamine (Animed #5-10K50), 1 mM Sodium Pyruvate (Animed # G03625P), 1× Penicillin-Streptomycin (Animed # F12478P); K-562: Iscove's MEM (Animed #1-28F16-I), 10% FCS (Animed #2-01F26-I), 4 mM L-Glutamine (Animed #5-10K50), 1× Penicillin-Streptomycin (Animed # F12478P); THP-1: RPMI-1640 (Animed #1-41F01-I), 10% FCS (Animed #2-01F26-I), 2 mM L-Glutamine (Animed #5-10K50), 10 mM HEPES (Animed #5-31F100), 1 mM Sodium Pyruvate (Animed # G03625P), 1× Penicillin-Streptomycin (Animed # F12478P). The AML lines MV-4-11 and THP-1 are very sensitive to BET inhibitors and show massive cell death upon BET inhibition (Zuber et al., Nature, 478 (2011), 524-8). Compound-mediated suppression of cell proliferation/viability was assessed by quantification of cellular ATP levels using the CellTiter-Glo (CTG) reagent (Promega). Briefly, cells were seeded in 20 μl fresh medium into 384-well plates, followed by addition of 5 μl medium containing compound dilutions at 5-fold their final intended concentration. Dose-response effects were assessed by 3-fold serial dilutions of the test compound, starting at 10 μM. Following incubation of the cells for 4 days at 37° C. and 5% CO2, the effect of inhibitors on cell viability was quantified following addition of 20 μl CTG and luminescence quantification (integration time: 100 ms) as per vendor manual, using a correspondingly equipped Tecan M200 multi-mode platereader (TECAN, Switzerland). For data analysis, the assay background value determined in wells containing medium, but no cells, was subtracted from all data points. To enable differentiation of cytotoxic from cytostatic compounds, the number of viable cells is assessed relative to that observed at the time of compound addition using a separate cell plate (day 0). The effect of a particular test compound concentration on cell proliferation/viability is expressed as percentage of the background- and day 0-corrected luminescence reading obtained for cells treated with vehicle only (DMSO, 0.1% final concentration), which is set as 100%, whereas that luminescence reading for wells containing medium is set as −100%. Compound concentrations leading to half-maximal (1050) and total growth inhibition (TGI) were determined using standard four parameter curve fitting.

BRD2 (His-Brd2(60-472)) = BRD2 (His-Brd2(60-472)) (Homo sapiens (Human), UniProt P25440); experiment: TR-FRET in-vitro binding assay for BRD2; conditions: acetyl-histone H4 peptide
Method: All assays were performed in 384 well microtiter plates. Each assay plate contained 8-point serial dilutions for 40 test compounds, plus 16 high- and 16 low controls. Liquid handling and incubation steps were done on an Innovadyne Nanodrop Express equipped with a robotic arm (Thermo CatX, Perkin Elmer/Caliper Twister II) and an incubator (Liconic STX40, Thermo Cytomat 2C450). The assay plates were prepared by addition of 50 nl per well of compound solution in 90% DMSO HummingBird nanodispenser (Zinsser Analytic). The assay was started by stepwise addition of 4.5 μl per well of bromo domain protein (50 mM HEPES, pH 7.5, 0.005% Tween20, 0.1% BSA, 50 mM NaCl, 45 nM His-Brd2(60-472) or 45 nM His-Brd3(20-477) or 45 nM His-Brd4(44-477) all proteins produced in-house) and 4.5 μl per well of peptide solution (50 mM HEPES, pH 7.5, 0.005% Tween20, 0.1% BSA, 50 mM NaCl, 60 nM acetyl-histone H4 (AcK 5, 8, 12, 16) (Biosyntan GmbH)). Reactions were incubated at 30° C. for 35 minutes. Subsequently 4.5 μl per well detection mix (50 mM HEPES, pH 7.5, 0.005% Tween20, 0.1% BSA, 50 mM NaCl, 3 nM Eu-labeled anti-His6 antibody, 21 nM streptavidin-allophycocyanin) were added. After 35 minutes incubation at 30° C., plates were measured in a Perkin Elmer EnVision multilabel reader. Concentrations causing 50% inhibition (1050) values were determined from percent inhibition values at different compound concentrations by non-linear regression analysis.
Test compounds were dissolved in DMSO (10 mM) and transferred into 1.4 mL flat bottom or V-shaped Matrix tubes carrying a unique 2D matrix. The stock solutions were stored at […] if not used immediately. For the test procedure the vials were defrosted and identified by a scanner whereby a working sheet was generated that guided the subsequent working steps. Compound dilutions were made in 96 well plates. This format enabled the assay of maximally 40 individual test compounds at 8 concentrations (single points) including 4 reference compounds, if desired (known BET inhibitors from the prior art, for this and other assays of the type disclosed herein). The dilution protocol included the production of “pre-dilution plates”, “master plates” and “assay plates”.
Pre-dilution plates: 96 polypropylene well plates were used as pre-dilution plates. A total of 4 pre-dilution plates were prepared including 10 test compounds each on the plate positions A1-A10, one standard compound at A11 and one DMSO control at A12. All dilution steps were done on a HamiltonSTAR robot. Master plates: 30 μL of individual compound dilutions including standard compound and controls of the 4 “pre-dilution plates” were transferred into a 384 “master plate” including the following concentrations 10000, 3003, 1000, 300, 100, 30, 10 and 3 μM, respectively in 90% of DMSO. Assay plates: Identical “assay plates” were then prepared by pipetting 50 nL each of compound dilutions of the “master plates” into 384-well “assay plates” by means of a HummingBird 384-channel dispenser. These plates were used directly for the assay which was performed in a total volume of 13.55 μL. This led to a final compound concentration of 37, 11, 3.7, 1.1, 0.37, 0.11, 0.037 and 0.011 μM and a final DMSO concentration of 0.37% in the assay. Cell Growth Inhibition Assay

K-562 cells = experiment: Cell growth inhibition assay (CellTiter-Glo), K-562; assay type: cell-based, human; conditions: K-562, 4 days; for GI50: Homo sapiens, K562, 96 h, half-maximal growth inhibition; for K-562 TGI: total growth inhibition
Method: as §1

MV-4-11 cells = experiment: Cell growth inhibition assay (CellTiter-Glo), MV-4-11; assay type: cell-based, human; conditions: MV-4-11, 4 days; for GI50: Homo sapiens, MV4-11, 96 h, half-maximal growth inhibition; for MV-4-11 TGI: total growth inhibition
Method: as §1

Chain of BRD2 (His-Brd2(60-472)) (P25440 60-472, species assumed): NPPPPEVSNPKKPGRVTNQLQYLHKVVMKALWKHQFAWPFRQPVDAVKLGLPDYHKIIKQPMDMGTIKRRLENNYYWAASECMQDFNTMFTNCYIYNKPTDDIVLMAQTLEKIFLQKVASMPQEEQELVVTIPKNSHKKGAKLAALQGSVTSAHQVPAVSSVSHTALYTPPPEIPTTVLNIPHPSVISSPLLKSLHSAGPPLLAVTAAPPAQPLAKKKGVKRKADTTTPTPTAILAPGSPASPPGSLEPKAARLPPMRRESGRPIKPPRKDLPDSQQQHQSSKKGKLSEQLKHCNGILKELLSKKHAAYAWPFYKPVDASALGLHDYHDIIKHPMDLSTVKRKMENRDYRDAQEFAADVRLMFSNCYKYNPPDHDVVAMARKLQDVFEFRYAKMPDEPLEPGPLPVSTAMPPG

SMILES: Cc1cc(N2C(=O)c3c(C4CC4)nn(-c4ccnn4C)c3[C@H]2c2ccc(Cl)cc2)cn(C)c1=O [Example 22, (R)-6-(4-chlorophenyl)-3-cyclopropyl-5-(1,5-dimethyl-6-oxo-1,6-dihydropyridin-3-yl)-1-(1-methyl-1H-pyrazol-5-yl)-5,6-dihydropyrrolo[3,4-c]pyrazol-4(1H)-one]
- GI50 (THP-1 cells): 87.4 nM
- THP-1 TGI (THP-1 cells): 165 nM
- IC50 (BRD2 (His-Brd2(60-472))): 160 nM
- GI50 (K-562 cells): 278 nM
- K-562 TGI (K-562 cells): >10000 nM
- GI50 (MV-4-11 cells): 49.5 nM
- MV-4-11 TGI (MV-4-11 cells): 88.65 nM

SMILES: Cc1[nH]nc2c1C(=O)N(c1cc(Cl)c(=O)n(C)c1)[C@@H]2c1ccc(Cl)cc1 [Example 28, (R)-5-(5-chloro-1-methyl-6-oxo-1,6-dihydropyridin-3-yl)-6-(4-chlorophenyl)-3-methyl-5,6-dihydropyrrolo[3,4-c]pyrazol-4(2H)-one]
- GI50 (THP-1 cells): 110 nM
- THP-1 TGI (THP-1 cells): 201.5 nM
- IC50 (BRD2 (His-Brd2(60-472))): 170 nM
- GI50 (K-562 cells): 318 nM
- K-562 TGI (K-562 cells): >10000 nM
- GI50 (MV-4-11 cells): 49.3 nM
- MV-4-11 TGI (MV-4-11 cells): 86.4 nM

SMILES: COc1ncccc1-c1nn(C)c2c1C(=O)N(c1cc(C)c(=O)n(C)c1)[C@@H]2c1ccc(Cl)cc1 [Example 16, (R)-6-(4-chlorophenyl)-5-(1,5-dimethyl-6-oxo-1,6-dihydropyridin-3-yl)-3-(2-methoxypyridin-3-yl)-1-methyl-5,6-dihydropyrrolo[3,4-c]pyrazol-4(1H)-one]
- GI50 (THP-1 cells): 43 nM
- THP-1 TGI (THP-1 cells): 92.2 nM
- IC50 (BRD2 (His-Brd2(60-472))): 48.5 nM
- GI50 (K-562 cells): 197 nM
- K-562 TGI (K-562 cells): >10000 nM
- GI50 (MV-4-11 cells): 23.6 nM
- MV-4-11 TGI (MV-4-11 cells): 43.7 nM

SMILES: COc1ncccc1-n1nc(C)c2c1[C@@H](c1ccc(Cl)cc1)N(c1cc(C)c(=O)n(C)c1)C2=O [Example 25, (R)-6-(4-chlorophenyl)-5-(1,5-dimethyl-6-oxo-1,6-dihydropyridin-3-yl)-1-(2-methoxypyridin-3-yl)-3-methyl-5,6-dihydropyrrolo[3,4-c]pyrazol-4(1H)-one]
- GI50 (THP-1 cells): 72.7 nM
- THP-1 TGI (THP-1 cells): 135.5 nM
- IC50 (BRD2 (His-Brd2(60-472))): 130 nM
- GI50 (K-562 cells): 206 nM
- K-562 TGI (K-562 cells): >10000 nM
- GI50 (MV-4-11 cells): 40.7 nM
- MV-4-11 TGI (MV-4-11 cells): 72.55 nM

SMILES: CCOc1ncccc1-n1nc2c(c1C)C(=O)N(c1cc(C)c(=O)n(C)c1)C2c1ccc(Cl)cc1 (stereo not shown) [Example 18b, 6-(4-chlorophenyl)-5-(1,5-dimethyl-6-oxo-1,6-dihydropyridin-3-yl)-2-(2-ethoxypyridin-3-yl)-3-methyl-5,6-dihydropyrrolo[3,4-c]pyrazol-4(2H)-one]
- GI50 (THP-1 cells): 44 nM
- THP-1 TGI (THP-1 cells): 93.1 nM
- IC50 (BRD2 (His-Brd2(60-472))): 35 nM
- GI50 (K-562 cells): 149 nM
- K-562 TGI (K-562 cells): >10000 nM
- GI50 (MV-4-11 cells): 16.9 nM
- MV-4-11 TGI (MV-4-11 cells): 31.3 nM

SMILES: Cc1cc(N2C(=O)c3c(C4CC4)n[nH]c3[C@H]2c2ccc(Cl)cc2)cn(C)c1=O [Example 24, (R)-6-(4-chlorophenyl)-3-cyclopropyl-5-(1,5-dimethyl-6-oxo-1,6-dihydropyridin-3-yl)-5,6-dihydropyrrolo[3,4-c]pyrazol-4(1H)-one]
- GI50 (THP-1 cells): 29.7 nM
- THP-1 TGI (THP-1 cells): 62.25 nM
- IC50 (BRD2 (His-Brd2(60-472))): 74 nM
- GI50 (K-562 cells): 103 nM
- K-562 TGI (K-562 cells): >10000 nM
- GI50 (MV-4-11 cells): 21.6 nM
- MV-4-11 TGI (MV-4-11 cells): 34.95 nM

SMILES: COc1ccc(-n2nc(C)c3c2C(c2ccc(Cl)cc2)N(c2cc(C)c(=O)n(C)c2)C3=O)cn1 (stereo not shown) [Example 20b, 6-(4-chlorophenyl)-5-(1,5-dimethyl-6-oxo-1,6-dihydropyridin-3-yl)-1-(6-methoxypyridin-3-yl)-3-methyl-5,6-dihydropyrrolo[3,4-c]pyrazol-4(1H)-one]
- GI50 (THP-1 cells): 93.1 nM
- THP-1 TGI (THP-1 cells): 156 nM
- IC50 (BRD2 (His-Brd2(60-472))): 49 nM
- GI50 (K-562 cells): 239 nM
- K-562 TGI (K-562 cells): >10000 nM
- GI50 (MV-4-11 cells): 38.6 nM
- MV-4-11 TGI (MV-4-11 cells): 54.2 nM

SMILES: COc1ncccc1-n1nc2c(c1C)C(=O)N(c1cc(C)c(=O)n(C)c1)[C@@H]2c1ccc(Cl)cc1 [Example 26, (R)-6-(4-chlorophenyl)-5-(1,5-dimethyl-6-oxo-1,6-dihydropyridin-3-yl)-2-(2-methoxypyridin-3-yl)-3-methyl-5,6-dihydropyrrolo[3,4-c]pyrazol-4(2H)-one]
- GI50 (THP-1 cells): 27.6 nM
- THP-1 TGI (THP-1 cells): 52.4 nM
- IC50 (BRD2 (His-Brd2(60-472))): 110 nM
- GI50 (K-562 cells): 174 nM
- K-562 TGI (K-562 cells): >10000 nM
- GI50 (MV-4-11 cells): 22.6 nM
- MV-4-11 TGI (MV-4-11 cells): 36.75 nM

SMILES: Cc1nn(C2CC2)c2c1C(=O)N(c1cc(C)c(=O)n(C)c1)C2c1ccc(Cl)cc1 (stereo not shown) [Example 11, 6-(4-chlorophenyl)-1-cyclopropyl-5-(1,5-dimethyl-6-oxo-1,6-dihydropyridin-3-yl)-3-methyl-5,6-dihydropyrrolo[3,4-c]pyrazol-4(1H)-one]
- GI50 (THP-1 cells): 36.6 nM
- THP-1 TGI (THP-1 cells): 82.2 nM
- IC50 (BRD2 (His-Brd2(60-472))): 38 nM
- GI50 (K-562 cells): 127 nM
- K-562 TGI (K-562 cells): >10000 nM
- GI50 (MV-4-11 cells): 18.6 nM
- MV-4-11 TGI (MV-4-11 cells): 29.4 nM

SMILES: COc1ncc(-n2nc3c(c2C)C(=O)N(c2cc(C)c(=O)n(C)c2)C3c2ccc(Cl)cc2)cn1 (stereo not shown) [Example 21b, 6-(4-chlorophenyl)-5-(1,5-dimethyl-6-oxo-1,6-dihydropyridin-3-yl)-2-(2-methoxypyrimidin-5-yl)-3-methyl-5,6-dihydropyrrolo[3,4-c]pyrazol-4(2H)-one]
- GI50 (THP-1 cells): 209 nM
- THP-1 TGI (THP-1 cells): 396 nM
- IC50 (BRD2 (His-Brd2(60-472))): 100 nM
- GI50 (K-562 cells): 510 nM
- K-562 TGI (K-562 cells): >10000 nM
- GI50 (MV-4-11 cells): 105 nM
- MV-4-11 TGI (MV-4-11 cells): 208 nM
